From patent US8202910B2 (Sequella, Inc., priority 2006, dated 2012)
“And” between values parts separate entries of the source, which are not always exact repeats. Equal entries are not always repeated. Where two headings read alike, the source gives them in different places.

What was measured:
[1] = system: H37Rv strain of Mycobacterium tuberculosis; assay: microbe, parasite or virus in culture; format: cell-based
cells = assay: LD50 for selectivity index (Table 10); format: cell-based, Mycobacterium tuberculosis; details: for SI (Selectivity Index): LD50 : MIC
Text: Table 10 lists MIC and LD50 data for selected compounds. […] Table 11 lists MIC data for purified substituted ethylene diamines in comparison to ethambutol (EMB).

[2] = system: monkey kidney cells (Vero); assay: In vitro toxicity, Vero cells; format: cell-based; details: Primates
Experimental: Twenty six compounds (including 37, 59 and 109) were tested in an in vitro model of toxicity using monkey kidney cells (Vero) and human cervical cancer cells (HeLa) using methods well known to those skilled in the art. The data from this toxicity testing and the MIC data were used to calculate a selectivity index (SI), the ratio of IC50:MIC (Table 15). Selectivity Indexes were ranging from 1.76 to 16.67.

wild type of M.tb = assay: MIC, secondary screening, wild type; format: cell-based, Mycobacterium tuberculosis; details: Mycobacterium tuberculosis, WT
M. tuberculosis H37Rv = assay: In vivo efficacy, mice infected i.v. with M. tuberculosis, CFU in spleen and lungs; parameters: species or system C57BL/6 mice; details: for activity in vivo, spleen and lung: 25 mg/kg, 5×10^6 CFU, 4 weeks
[3] = Mycobacterium tuberculosis, H37RV, read-out: MIC
[4] = concentration at which 50% of the cells are killed
[5] = Mycobacterium tuberculosis, H37RV, Table 10, from uM and MW, read-out: MIC
[6] = Mycobacterium tuberculosis, H37RV, Table 10, read-out: MIC
[7] = Mycobacterium tuberculosis, H37RV, Table 15, read-out: MIC

C=CCN(CCNCCc1ccccc1OC)C1CCCC1 [Compound 76, N-Allyl-N-cyclopentyl-N′-[2-(2-methoxyphenyl)ethyl]ethane-1,2-diamine]
MIC [1]: 31.25 µM | MIC [1, 3]: 62.5 µM

C=CCN(CCNCCc1ccccc1Cl)C1CCCC1 [Compound 118, N-2-(2-Chlorophenyl)ethyl-N′-allyl-N′-(cyclopentyl)ethane-1,2-diamine]
MIC [1]: 62.5 µM | MIC [1, 3]: 31.2 µM

CC(CNCCC(c1ccccc1)c1ccccc1)NCC12CC3CC(CC(C3)C1)C2 (stereo not drawn) [Compound 6]
SI (Selectivity Index) (cells): 2.56 | LD50 (cells; [4]): 20 µM | LD50 (cells; from uM and MW): 10.72 µg/mL | MIC [1, 5]: 4.19 µg/mL | MIC [1, 6]: 7.81 µM

CCOCCCNCCNCC(c1ccccc1)c1ccccc1 [Compound 107]
MIC [1]: 250 µM | MIC [1, 3]: 500 µM

C[C@@H]1C2C[C@@H](C[C@H]1NCCNCCC(c1ccccc1)c1ccccc1)C2(C)C [Compound 66, N-(3,3-Diphenylpropyl)-N′-(1R, 2R, 3R, 5S)-(−)-isopinocampheylethane-1,2-diamine]
IC50 [2]: 28 µM | MIC [1, 7]: 15.6 µM

CC1(C)C2CCC(CNCCNCC(c3ccccc3)c3ccccc3)[C@@H]1C2 (stereo partly drawn) [RL 241]
MIC (wild type of M.tb; value in brackets, read-out: MIC (or uM)): 3.34 µM | MIC (wild type of M.tb; EMB, RL241, Cmpd#59 as 2HCl salt, Cmpd#109 as 2CF3COOH salt, read-out: MIC): 1.5 µg/mL

CC(C)(C)CC(C)(C)NCCNCC(c1ccccc1)c1ccccc1 [Compound 33, N-(2,2-Diphenylethyl)-N′-(1,1,3,3-tetramethylbutyl)-ethane-1,2-diamine]
MIC [1]: 31.25 µM | MIC [1, 3]: 62.5 µM

C1CCCC(NCCNC2CCCCCCC2)CCC1 [Compound 103, N,N′-Bis(cyclooctyl)ethane-1,2-diamine]
MIC [1]: 62.5 µM | MIC [1, 3]: 31.2 µM

CC(NCCNCC(c1ccccc1)c1ccccc1)C(O)c1ccc(O)c(O)c1 (stereo not drawn) [Compound 134, N-[2-(N′-2,2-Diphenylethyl)-aminoethyl]-(−)-3,4-dihydroxynorephedrine]
MIC [1]: 500 µM | MIC [1, 3]: > 500 µM

C[C@@H]1C2C[C@@H](C[C@H]1NCCNC(c1ccccc1)c1ccccc1)C2(C)C [Compound 71, N-(1,1-Diphenylmethyl)-N′-(1R, 2R, 3R, 5S)-(−)-isopinocampheylethane-1,2-diamine]
MIC [1]: 31.25 µM | MIC [1, 3]: 62.5 µM

CC[C@@H](CO)NCCNC1CCCCCCC1 [Compound 56, N-(Cyclooctyl)-N′-(2S)-[2-(1-hydroxybutyl)]ethane-1,2-diamine]
MIC [1]: >500 µM | MIC [1, 3]: 500 µM

CC(CNC[C@@H]1CCC2C[C@@H]1C2(C)C)NCC1CCC2C[C@@H]1C2(C)C (stereo partly drawn) [Compound 125, N,N′-bis-(−)-cis-Myrtanylpropane-1,2-diamine]
MIC [1]: 15.625 µM | MIC [1, 3]: 15.6 µM

CC(CNCC(c1ccccc1)c1ccccc1)NCC1CCC2C[C@@H]1C2(C)C (stereo partly drawn) [Compound 38, N-(−)-cis-(Myrtanyl)-N′-(2,2-diphenylethyl)propyl-1,2-diamine]
IC50 [2]: 33 µM | MIC [1, 7]: 6.25 µM

c1ccc(C2CC2NCCNC23CC4CC(CC(C4)C2)C3)cc1 (stereo not drawn) [Compound 65, N-(1-Adamantyl)-N′- trans-(2-phenylcyclopropyl)ethane-1,2-diamine]
SI (Selectivity Index) (cells): 3.84 | LD50 (cells; [4]): 60 µM | LD50 (cells; from uM and MW): 25.8 µg/mL | MIC [1]: 31.25 µM | MIC [1, 5]: 6.72 µg/mL | MIC [1, 6]: 15.6 µM | MIC [1, 3]: 15.6 µM

C1CCCC(NCCNCC23CC4CC(CC(C4)C2)C3)CCC1 [Compound 55, N-(Cyclooctyl)-N′-(1-methyladamantyl)ethane-1,2-diamine]
IC50 [2]: 34 µM | MIC [1]: 15.625 µM and 15.6 µM | MIC [1, 7]: 15.6 µM | MIC [1, 3]: 15.6 µM

CC(NCCNC1CCCCCCC1)c1cccc2ccccc12 (stereo not drawn) [Compound 61]
MIC [1]: 31.25 µM | MIC [1, 3]: 62.5 µM

COc1ccc(CCNCC(NCCc2ccc(F)cc2)c2ccccc2)cc1 (stereo not drawn) [Compound 164, N^1-[2-(4-fluorophenyl)ethyl]-N^2-[2-(4-Methoxy)phenylethyl)-1-phenylethane-1,2-diamine]
MIC [1]: 125 µM | MIC [1, 3]: 62.5 µM

c1ccc2c(c1)CC(NCCNC1C3CC4CC(C3)CC1C4)C2 (stereo not drawn) [Compound 78, N-2-Adamantyl-N′-2,3-dihydro-1H-inden-2-yl-ethane-1,2-diamine]
IC50 [2]: 130 µM | MIC [1, 7]: 15.6 µM

c1ccc(C2CC2NCCNC2CCCCCCC2)cc1 (stereo not drawn) [Compound 63, N-(Cyclooctyl)-N′-trans-(2-phenylcyclopropyl)ethane-1,2-diamine]
MIC [1]: 31.25 µM | MIC [1, 3]: 62.5 µM

C1CCCC(NCCNC2C3CC4CC(C3)CC2C4)CCC1 (stereo not drawn) [Compound 58, N-(Cyclooctyl)-N′-(2-adamantyl)ethane-1,2-diamine]
activity in vivo, spleen and lung (M. tuberculosis H37Rv): active in vivo in both spleen and lung | IC50 [2]: 82 µM | MIC [1, 7]: 12.5 µM

CC1CCCC(NCCNCC(c2ccccc2)c2ccccc2)C1C (stereo not drawn) [Compound 29, N-(2,2-Diphenylethyl)-N′-(2,3-dimethylcylcohexyl)ethane-1,2-diamine]
MIC [1]: 31.25 µM | MIC [1, 3]: 62.5 µM

CC1CCCC(NCCNC[C@@H]2CCC3C[C@@H]2C3(C)C)C1C (stereo partly drawn) [Compound 41, N-(−)-cis-(Myrtanyl)-N′-(2,3-dimethylcyclohexyl)ethane-1,2-diamine]
IC50 [2]: 19 µM | MIC [1, 7]: 3.13 µM

c1ccc(C2CC2NCCNC2C3CC4CC(C3)CC2C4)cc1 (stereo not drawn) [Compound 64, N-(2-Adamantyl)-N′- trans-(2-phenylcyclopropyl)ethane-1,2-diamine]
MIC [1, 3]: 31.2 µM

C[C@@H]1C2C[C@@H](C[C@H]1NCCNCC(c1ccccc1)c1ccccc1)C2(C)C [Compound 40, N-(2,2-Diphenylethyl)-N′-(1R,2R,3R,5S)-(−)-isopinocampheylethane-1,2-diamine]
IC50 [2]: 25 µM | MIC [1, 7]: 15.6 µM

COc1ccccc1CCNCCN[C@@H]1C[C@@H]2CC([C@H]1C)C2(C)C [Compound 151, N-[2-(2-Methoxy)phenylethyl]-N′-(1R, 2R, 3R, 5S)-(−)-isopinocampheyl-ethane-1,2-diamine]
SI (Selectivity Index) (cells): 5.248 | LD50 (cells; [4]): 41 µM | LD50 (cells; from uM and MW): 18.45 µg/mL | MIC [1]: 7.813 µM | MIC [1, 5]: 3.52 µg/mL | MIC [1, 6]: 7.81 µM | MIC [1, 3]: 15.6 µM

CC1(C)C2CCC(CNCCNC3CCCCCCC3)[C@@H]1C2 (stereo partly drawn) [Compound 57, N-(−)-cis-Myrtanyl-N′-(cyclooctyl)ethane-1,2-diamine]
IC50 [2]: 22 µM | SI (Selectivity Index) (cells): 1.152 | LD50 (cells; [4]): 18 µM | LD50 (cells; from uM and MW): 7.668 µg/mL | MIC [1, 5]: 6.66 µg/mL | MIC [1, 6]: 15.6 µM | MIC [1, 7]: 11.7 µM

COc1ccc(CCNCCNCC23CC4CC(CC(C4)C2)C3)cc1OC [Compound 4]
MIC [1]: 62.5 µM | MIC [1, 3]: 125 µM

CCC(CO)NCCN[C@@H]1C[C@@H]2CC([C@H]1C)C2(C)C (mixture of isomers) [Compound 68]
MIC [1, 3]: 500 µM

CC1CC(C)CN(CCNCCC(c2ccccc2)c2ccccc2)C1 (stereo not drawn) [Compound 15, 1-{2-[N-(3,3-Diphenylpropyl)]-aminoethyl}-3,5-dimethyl-piperidine]
MIC [1]: 250 µM and 500 µM | MIC [1, 3]: > 500 µM

C[C@@H]1[C@@H](NCCNC2CCCCCCC2)C[C@H]2C[C@@H]1C2(C)C [Compound 53, N-Cyclooctyl-N′-(1S, 2S, 3S, 5R)-(+)-isopinocampheyl-ethane-1,2-diamine]
MIC [1, 3]: 31.2 µM

Fc1cccc(CCNCCNCCc2ccccc2Cl)c1 [Compound 119, N-2-(2-Chlorophenyl)ethyl-N′-[2-(3-fluorophenyl)-ethyl]ethane-1,2-diamine]
MIC [1]: 62.5 µM | MIC [1, 3]: 125 µM

C(CNC1C2CC3CC(C2)CC1C3)NC1C2CC3CC(C2)CC1C3 (stereo not drawn) [SQBisAd, Bis(2-Adamantyl)ethylenediamine]
MIC (Minimal Inhibitory Concentration) compared with compound 109 [1]: equal or better than compound 109

COc1ccccc1CCNCCNC1C2CC3CC(C2)CC1C3 (stereo not drawn) [Compound 73, N-(2-Adamantyl)-N′-[2-(2-methoxyphenyl)ethyl]ethane-1,2-diamine]
activity in the spleen compared with EMB (M. tuberculosis H37Rv; 1 mg/kg and 10 mg/kg, 5×10^5 CFU, chemotherapy from day 20): equal to that of EMB at 100 mg/kg | IC50 [2]: 81 µM | MIC [1, 7]: 12.5 µM

CCC1CCCCN1CCNC/C=C(\C)CCC=C(C)C (stereo not drawn) [Compound 111, N-[2-(N′-Geranyl)aminoethyl]-2-ethylpiperidine]
anti-tuberculosis activity compared with EMB (M. tuberculosis H37Rv; 10 mg/kg, B6 mice, 5×10^5 CFU, chemotherapy from day 20): comparable to that of EMB at 100 mg/kg | activity in vivo, spleen and lung (M. tuberculosis H37Rv): active in vivo in both spleen and lung | IC50 [2]: 45 µM | SI (Selectivity Index) (cells): 5.632 | LD50 (cells; [4]): 44 µM | LD50 (cells; from uM and MW): 18.128 µg/mL | MIC [1]: 7.813 µM and 7.8 µM | MIC [1, 5]: 3.22 µg/mL | MIC [1, 6]: 7.81 µM | MIC [1, 7]: 7.81 µM | MIC [1, 3]: 7.81 µM

c1ccc(C(CNCCNCC23CC4CC(CC(C4)C2)C3)c2ccccc2)cc1 [Compound 34, N-(2,2-Diphenylethyl)-N′-(1-methyladamantyl)ethane-1,2-diamine]
SI (Selectivity Index) (cells): 4.096 | LD50 (cells; [4]): 32 µM | LD50 (cells; from uM and MW): 16.256 µg/mL | MIC [1, 5]: 3.97 µg/mL | MIC [1, 6]: 7.81 µM

C[C@@H]1C2C[C@@H](C[C@H]1NCCNCC1CCC3C[C@@H]1C3(C)C)C2(C)C (stereo partly drawn) [Compound 47, N-(−)-cis-Myrtanyl-N′-(1R, 2R, 3R, 5S)-(−)-isopinocampheylethane-1,2-diamine]
SI (Selectivity Index) (cells): 1.6 | LD50 (cells; [4]): 25 µM | LD50 (cells; from uM and MW): 11.3 µg/mL | MIC [1, 5]: 7.06 µg/mL | MIC [1, 6]: 15.6 µM
